Tests used:
Assay type in all cases: cell-based, Mouse
NOX2 protein = NOX2 protein expression by Western blot with densitometry relative to β-actin; settings: B16-F10 cells, FIG. 2
Description: (§1) B16-F10 melanoma cells were cultured under conditions of 36.5° C. and 5% CO2 using a Dulbecco's modified Eagle's medium supplemented with 10% (v/v) fetal bovine serum and 1% (v/v) penicillin-streptomycin.
B16-F10 melanoma cells were cultured for 12 hours, and then treated with polygalatenoside A at concentrations of 0, 0.1, 0.3, 1, 3, and 10 μM for 24 hours, respectively. Thereafter, the cells were washed twice with PBS, and collected, and proteins were recovered by lysing the cells with a radioimmunoprecipitation assay (RIPA) buffer containing phenylmethylsulfonyl fluoride (PMSF). 50 μg of proteins was separated by sodium dodecyl sulfate poly-acrylamide gel electrophoresis (SDS-PAGE) and then transferred to a polyvinylidene fluoride (PVDF) membrane. The membrane was treated with a tris-buffered saline (TBS; pH 7.6) containing 5% (w/v) skim milk, 0.05% (v/v) tween-20, and 0.01% (w/v) sodium azide at 25° C. for 1 hour. The membrane was washed three times with TBST (TBS containing 0.05% (v/v) tween-20) and treated with an anti-NOX2 primary antibody and a horse radish peroxidase (HRP)-conjugated secondary antibody. The protein levels were visualized using enhanced chemiluminescence (ECL) and an X-ray film. The expression level of NOX2 protein compared to β-actin was shown in FIG. 2 through a densitometry of ImageJ software.

B16-F10 melanoma cells [1] = assay: Viable cell number by trypan blue staining and hemocytometer; settings: FIG. 4
Description: as §1
Next, in order to measure changes in cell number, B16-F10 cells were cultured for 12 hours, and then treated with polygalatenoside A at concentrations of 0, 0.1, 0.3, 1, 3, and 10 μM for 72 hours, respectively. The cells were collected every 24 hours, stained with trypan blue, and the number of viable cells was measured using a hemocytometer, and the results were shown in FIG. 4.

B16-F10 melanoma cells [2] = assay: WST8 cell viability assay; settings: 3 μM for 48 hours, WST8, absorbance at 450 nm, FIG. 3
Description: as §1
B16-F10 melanoma cells were cultured in a 96-well cell culture plate for 12 hours, and then treated with polygalatenoside A at concentrations of 0, 0.1, 0.3, 1, 3, and 10 μM for 48 hours, respectively. The medium was treated with a WST8 Cell Viability Assay Reagent to a concentration of 10% (v/v) and cultured for 2 hours. Thereafter, cell viability was confirmed by measuring absorbance at 450 nm using a microplate reader, and the results were shown in FIG. 3.

## O=C(OCC1OC(OC2COC(CO)[C@@H](O)C2O)C(O)C(O)C1O)c1ccccc1 (some centres unmarked) [polygalatenoside A, Polygalatenoside A]
NOX2 protein; 3 μM for 24 hours
  expression of NOX2 compared to untreated control group (fold): about 1.4 times
NOX2 protein; 0.1-10 μM for 24 hours
  expression of NOX2 compared to untreated control group: increased
B16-F10 melanoma cells [1]; 3 μM up to 72 hours, compared with the other concentrations
  growth inhibition effect (number of viable cells): most significantly shown
B16-F10 melanoma cells [1]; 0.1-10 μM up to 72 hours, counted every 24 hours
  growth of melanoma cells (number of viable cells): inhibited
B16-F10 melanoma cells [2]
  cell viability (cell death effect): cell death effect was exhibited

Reference: patent publication US20240408125A1, “COMPOSITION COMPRISING POLYGALATENOSIDE AS ACTIVE INGREDIENT FOR PREVENTION OR TREATMENT OF CANCER” (HOSEO UNIVERSITY ACADEMIC COOPERATION FOUNDATION, priority 2021, published 2024)
